From US10351540B2, “1,2-dithiolane and dithiol compounds useful in treating mutant EGFR-mediated diseases and conditions” (Sabila Biosciences LLC, priority 2017, dated 2019)

Each compound was assayed against T1, EGFR T790M (Homo sapiens, UniProt P00533, T790M) (assay: KINOMEscan competition binding kinase assay, Kd (Method B)). Details: Method B (Kd values).
T1 construct: made in house; host or cells: T7 phage in E. coli (BL21-derived) or HEK-293 cells
T1 sequence (P00533 25-1210 T790M): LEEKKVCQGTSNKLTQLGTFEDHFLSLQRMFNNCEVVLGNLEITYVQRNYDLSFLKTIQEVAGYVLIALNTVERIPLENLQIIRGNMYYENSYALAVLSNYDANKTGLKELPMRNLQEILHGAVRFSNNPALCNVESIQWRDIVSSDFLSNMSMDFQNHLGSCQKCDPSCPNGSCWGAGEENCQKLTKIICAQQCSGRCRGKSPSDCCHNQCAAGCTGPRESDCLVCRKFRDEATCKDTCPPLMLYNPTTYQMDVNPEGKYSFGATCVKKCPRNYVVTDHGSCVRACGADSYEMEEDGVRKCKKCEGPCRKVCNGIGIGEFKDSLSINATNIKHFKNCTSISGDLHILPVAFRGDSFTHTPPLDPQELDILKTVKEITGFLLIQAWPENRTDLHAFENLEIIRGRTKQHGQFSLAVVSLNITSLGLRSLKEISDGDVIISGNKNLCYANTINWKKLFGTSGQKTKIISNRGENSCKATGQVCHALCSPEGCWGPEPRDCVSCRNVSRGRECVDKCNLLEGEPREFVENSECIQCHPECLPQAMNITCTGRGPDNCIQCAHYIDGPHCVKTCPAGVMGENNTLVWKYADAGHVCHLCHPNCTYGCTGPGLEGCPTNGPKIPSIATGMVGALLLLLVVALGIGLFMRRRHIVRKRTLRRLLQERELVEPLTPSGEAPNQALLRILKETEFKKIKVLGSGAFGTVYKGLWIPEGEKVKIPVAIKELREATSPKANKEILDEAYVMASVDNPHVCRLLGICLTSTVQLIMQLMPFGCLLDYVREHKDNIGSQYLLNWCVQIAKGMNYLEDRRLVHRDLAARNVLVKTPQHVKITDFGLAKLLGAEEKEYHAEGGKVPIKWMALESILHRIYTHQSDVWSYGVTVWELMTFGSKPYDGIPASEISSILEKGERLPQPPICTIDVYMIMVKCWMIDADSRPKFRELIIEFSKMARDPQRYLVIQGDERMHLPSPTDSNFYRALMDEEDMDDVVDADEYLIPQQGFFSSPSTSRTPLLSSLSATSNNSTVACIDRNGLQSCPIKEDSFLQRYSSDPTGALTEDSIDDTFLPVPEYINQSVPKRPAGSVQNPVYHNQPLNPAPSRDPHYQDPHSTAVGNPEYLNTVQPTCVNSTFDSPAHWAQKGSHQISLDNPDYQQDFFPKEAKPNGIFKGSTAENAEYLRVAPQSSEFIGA
Experimental: The assay is performed by combining three components: DNA-tagged kinase; immobilized ligand; and a test compound. The ability of the test compound to compete with the immobilized ligand is measured via quantitative PCR of the DNA tag.
For most assays, kinase-tagged T7 phage strains were prepared in an E. coli host derived from the BL21 strain. E. coli were grown to log-phase and infected with T7 phage and incubated with shaking at 32° C. until lysis. The lysates were centrifuged and filtered to remove cell debris. The remaining kinases were produced in HEK-293 cells and subsequently tagged with DNA for qPCR detection. Streptavidin-coated magnetic beads were treated with biotinylated small molecule ligands for 30 minutes at room temperature to generate affinity resins for kinase assays. The liganded beads were blocked with excess biotin and washed with blocking buffer (SeaBlock (Pierce), 1% BSA, 0.05% Tween 20, 1 mM DTT) to remove unbound ligand and to reduce non-specific binding. […] All reactions were performed in polystyrene 96-well plates in a final volume of 0.135 ml. […] The kinase concentration in the eluates was measured by qPCR.

Kd [nM]	Structure (SMILES)
100 to 999	COc1cc(N(C)CCN(C)C)c(NC(=O)C(CSC(C)=O)CSC(C)=O)cc1Nc1nccc(-c2cn(C)c3ccccc23)n1 [Example 28, S,S′-(2-((2-((2-(dimethylamino)ethyl)(methyl)amino)-4-methoxy-5-((4-(1-methyl-1H-indol-3-yl)pyrimidin-2-yl)amino)phenyl)carbamoyl)propane-1,3-diyl)diethanethioate]
1000 to 10000	COc1cc(N2CCN(C)CC2)ccc1Nc1ncc(Cl)c(Oc2cccc(NC(=O)C3CSSC3)c2)n1 [Example 36, N-(3-((5-chloro-2-((2-methoxy-4-(4-methylpiperazin-1-yl)phenyl)amino)pyrimidin-4-yl)oxy)phenyl)-1,2-dithiolane-4-carboxamide]
> 10000	COc1cc(N2CCN(C)CC2)ccc1Nc1ncc(Cl)c(Oc2cccc(NC(=O)C(CSC(C)=O)CSC(C)=O)c2)n1 [Example 35, S,S′-(2-((3-((5-chloro-2-((2-methoxy-4-(4-methylpiperazin-1-yl)phenyl)amino)pyrimidin-4-yl)oxy)phenyl)carbamoyl)propane-1,3-diyl)diethanethioate]
100 to 999	COc1cc(N2CCN(C)CC2)ccc1Nc1ncc(Cl)c(Nc2cccc(NC(=O)C(CSC(C)=O)CSC(C)=O)c2)n1 [Example 40, S,S′-(2-((3-((5-chloro-2-((2-methoxy-4-(4-methylpiperazin-1-yl)phenyl)amino)pyrimidin-4-yl)amino)phenyl)carbamoyl)propane-1,3-diyl)diethanethioate]
100 to 999	COc1cc(N(C)CCN(C)C)c(NC(=O)C2CSSC2)cc1Nc1nccc(-c2cn(C)c3ccccc23)n1 [Example 29, N-(2-((2-(dimethylamino)ethyl)(methyl)amino)-4-methoxy-5-((4-(1-methyl-1H-indol-3-yl)pyrimidin-2-yl)amino)phenyl)-1,2-dithiolane-4-carboxamide]
1 to 99	COc1cc(N2CCN(C)CC2)ccc1Nc1ncc(Cl)c(Nc2cccc(NC(=O)C3CSSC3)c2)n1 [Example 41, N-(3-((5-chloro-2-((2-methoxy-4-(4-methylpiperazin-1-yl)phenyl)amino)pyrimidin-4-yl)amino)phenyl)-1,2-dithiolane-4-carboxamide]

The compounds below were run against T2, EGFR (L858R) (Homo sapiens, UniProt P00533, L858R) (assay: KinaseSeeker competition binding assay, rabbit reticulocyte lysate (Method A)). Details: 7-point curve, duplicate.
T2 construct: made in house; host or cells: cell-free translation in rabbit reticulocyte lysate
T2 sequence (P00533 25-1210 L858R): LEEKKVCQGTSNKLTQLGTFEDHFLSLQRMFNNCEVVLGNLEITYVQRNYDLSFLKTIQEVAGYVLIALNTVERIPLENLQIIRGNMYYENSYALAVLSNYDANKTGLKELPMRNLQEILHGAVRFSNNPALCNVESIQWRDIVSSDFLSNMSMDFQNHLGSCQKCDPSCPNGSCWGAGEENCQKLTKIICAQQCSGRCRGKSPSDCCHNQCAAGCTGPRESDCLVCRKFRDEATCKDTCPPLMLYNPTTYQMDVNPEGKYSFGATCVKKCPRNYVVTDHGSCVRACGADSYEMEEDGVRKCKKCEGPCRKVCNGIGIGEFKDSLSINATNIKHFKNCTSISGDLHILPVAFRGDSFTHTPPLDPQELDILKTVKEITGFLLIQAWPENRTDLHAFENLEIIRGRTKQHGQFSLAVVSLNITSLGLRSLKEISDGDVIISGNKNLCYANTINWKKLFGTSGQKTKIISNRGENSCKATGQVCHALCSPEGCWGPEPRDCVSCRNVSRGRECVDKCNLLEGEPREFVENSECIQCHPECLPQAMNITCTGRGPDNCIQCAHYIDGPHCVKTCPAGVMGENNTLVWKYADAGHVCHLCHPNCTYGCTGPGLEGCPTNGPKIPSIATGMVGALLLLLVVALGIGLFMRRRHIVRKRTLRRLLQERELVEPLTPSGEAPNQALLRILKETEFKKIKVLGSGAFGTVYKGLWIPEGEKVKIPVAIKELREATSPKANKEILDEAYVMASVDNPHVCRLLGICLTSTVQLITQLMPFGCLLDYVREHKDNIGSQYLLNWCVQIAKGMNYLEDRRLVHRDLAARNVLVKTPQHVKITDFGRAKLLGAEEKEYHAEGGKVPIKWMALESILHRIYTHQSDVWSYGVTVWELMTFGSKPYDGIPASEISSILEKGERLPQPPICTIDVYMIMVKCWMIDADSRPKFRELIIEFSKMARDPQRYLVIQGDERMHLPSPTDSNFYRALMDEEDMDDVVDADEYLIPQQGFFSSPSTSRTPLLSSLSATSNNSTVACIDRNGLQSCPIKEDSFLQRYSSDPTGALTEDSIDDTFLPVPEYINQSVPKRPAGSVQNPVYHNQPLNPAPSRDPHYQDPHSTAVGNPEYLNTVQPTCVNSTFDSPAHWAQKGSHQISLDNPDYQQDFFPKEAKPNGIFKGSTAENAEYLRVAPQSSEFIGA
Experimental: Method A: Rabbit Reticulocyte Lysate Assay Design: KinaseSeeker is a homogeneous competition binding assay where the displacement of an active site dependent probe by an inhibitor is measured by a change in luminescence signal. Luminescence readout translates into a highly sensitive and robust assay with low background and minimal interference from test compounds.
10 mM stock solutions of test compounds were serially diluted in DMSO to make assay stocks. Prior to initiating IC50 determinations, the test compounds were evaluated for false positive against split-luciferase.
Each test compound was screened in duplicate against target kinase i.e. EGFR (L858R) at 7 different concentrations. For kinase assays, Cfluc-kinase was translated along with Fos-Nfluc using a cell-free system (rabbit reticulocyte lysate) at 30° C. for 90 min. […] 80 uL of luciferin assay reagent was added to each solution and luminescence was immediately measured on a luminometer.
The % Inhibition and % Activity Remaining was calculated using the following equation: % Inhibition=[(ALUControl=ALUSample)/ALUControl]×100 % Activity Remaining=100−% Inhibition
The % Activity was plotted against compound concentration and the IC50 was determined for each compound using a 7-point curve (Jester, B. W.; et. al. J. Am. Chem. Soc. 2010, 132, 11727-11735. Jester, B. W.; et. al. J. Med. Chem. 2012, 55, 1526-1537). […]

IC50 [nM]	Structure (SMILES)
> 10000	O=C(C[C@@H]1CCSS1)Nc1c(Nc2ccc(OCc3cccc(F)c3)c(Cl)c2)ncnc1OC[C@H](O)CO [Example 24, N-(4-((3-chloro-4-((3-fluorobenzyl)oxy)phenyl)amino)-6-((R)-2,3-dihydroxypropoxy)pyrimidin-5-yl)-2-((R)-1,2-dithiolan-3-yl)acetamide]
1000 to 10000	CCOc1ncnc(Nc2ccc(OCc3cccc(F)c3)c(Cl)c2)c1NC(=O)CC1CCSS1 (centres unmarked) [Example 20]
